From US20240101602A1, “ANTIMICROBIAL PEPTIDES AND METHOD OF PREVENTING OR TREATING INFECTION BY USING THE SAME” (priority 2020, published 2024) come the findings set out here.

For assay [1], the system named is Acinetobacter baumannii ATCC 17978.
Assay [2] has as its system Cryptococcus neoformans H99.
Assay [3] relates to Cryptococcus neoformans 89-610 (fluconazole-resistant).
Assay [4] concerns Cryptococcus neoformans T1 (fluconazole-resistant).
Assay [5] relates to Cryptococcus deuterogattii R265.
Assay [6] relates to Pseudomonas syringae pv. syringae strain B728a. The note with it: Pss B728a; Table 7.
Assay [7] concerns Staphylococcus epidermidis ATCC 14990.
In assay [8] the test system is Cgl FST02. Type of assay: cell-based, Colletotricum gloeosporioides. The note with it: Cgl FST02; optimal minimal medium, crude peptides (Table 9). How it is done:
(§1) The experiments were conducted in an optimal minimal medium for each pathogen. The media and growth conditions were described in Tables 2 and 3. MIC and MBC values were determined following the procedures described above. […] Fifty microliters of serially diluted peptides (2-fold the final concentration) were added in a 96-well polystyrene plate with 50 μL of the fungal spore suspension. […] The plates were incubated at an optimal temperature without shaking. […] MFC was determined as the lowest peptide concentration at which no fungal growth was observed.

The subject of assay [9] is Eco DH5α. Put plainly: MIC and MBC by serial dilution in 96-well plate. It is filed as cell-based, Escherichia coli. Here is the method: (§2) The effect of peptide length on the antimicrobial activity was investigated by deciding the minimal inhibitory concentration (MIC) and minimal bactericidal concentration (MBC) for each peptide against the pathogen with the media and growth conditions of phytopathogenic bacteria and E. coli as described in Table 1. Single bacterial colony grown on an optimal rich agar medium was picked, and each grew in 3 mL of the same rich liquid medium for 4 to 6 h.
(§3) For experiments carried out in the rich medium, the bacterial broth culture was then diluted in the same medium to give a final concentration of OD600=0.08, and then further diluted 100 folds in the same medium.
(§4) For experiments carried out in the minimal medium, the bacterial cells were collected from the bacterial liquid culture by centrifugation, re-suspended in an optimal minimal medium to give a final concentration of OD600=0.08, and then further diluted 100 folds in the same minimal medium.
(§5) Fifty microliters of serially diluted peptides (2-fold the final concentration) were added in a 96-well polystyrene plate with 50 μL of the bacterial culture. The final concentrations of peptides were 0, 2, 4, 8, 16 and 32 μg/mL. The plates were incubated at an optimal temperature without shaking.
(§6) MBC was determined as the lowest peptide concentration at which no colonies formed.

Assay [10] relates to Pseudomonas syringae pv. tomato strain DC3000.
In assay [11] the test system is Klebsiella pneumonia NTUH-K2044.
In assay [12] the test system is Staphylococcus aureus BCRC 10777.
Assay [13] relates to Botrytis cinerea. Type of assay: cell-based. The note with it: Bc; optimal minimal medium, crude peptides (Table 9). How it is done: as §1
The subject of assay [14] is Ralstonia solanacearum strain Pss4. The note with it: Rs Pss4; optimal minimal medium, crude peptides (Table 9).
Assay [15] deals with Ralstonia solanacearum strain Pss190. The note with it: Rs Pss190; optimal minimal medium, crude peptides (Table 9).
The test system of assay [16] is Agrobacterium tumefaciens strain Atu C58C1.
For assay [17], the system named is Xanthomonas campestris pv. campestris strain Xcc17. Briefly: MIC and MBC by serial dilution in 96-well plate. It is filed as cell-based. The conditions noted are these: Xcc Xcc17; Table 7. Here is the method: as §2, §3, §4, §5, §6
Assay [18] has as its system Xanthomonas euvesicatoria strain Xvt28. Briefly: MIC and MBC by serial dilution in 96-well plate. It is filed as cell-based. The conditions noted are these: Xev Xvt28; Table 7. How it is done: as §2, §3, §4, §5, §6
In assay [19] the test system is Pectobacterium carotovorum subsp. carotovorum. It is filed as cell-based. Here is the method: (§7) The effect of peptide length on the antimicrobial activity was investigated by deciding the minimal inhibitory concentration (MIC) and minimal bactericidal concentration (MBC) for each peptide against the pathogen with the media and growth conditions of phytopathogenic bacteria and E. coli as described in Table 1. Single bacterial colony grown on an optimal rich agar medium was picked, and each grew in 3 mL of the same rich liquid medium for 4 to 6 h. For experiments carried out in the rich medium, the bacterial broth culture was then diluted in the same medium to give a final concentration of OD600=0.08, and then further diluted 100 folds in the same medium. For experiments carried out in the minimal medium, the bacterial cells were collected from the bacterial liquid culture by centrifugation, re-suspended in an optimal minimal medium to give a final concentration of OD600=0.08, and then further diluted 100 folds in the same minimal medium. Fifty microliters of serially diluted peptides (2-fold the final concentration) were added in a 96-well polystyrene plate with 50 μL of the bacterial culture. […] The plates were incubated at an optimal temperature without shaking. […] MBC was determined as the lowest peptide concentration at which no colonies formed. The experiments were conducted in an optimal minimal medium for each pathogen. The media and growth conditions were described in Tables 2 and 3. MIC and MBC values were determined following the procedures described above. […] Fifty microliters of serially diluted peptides (2-fold the final concentration) were added in a 96-well polystyrene plate with 50 μL of the fungal spore suspension.

For assay [20], the system named is Erwinia chrysanthemi. It is filed as cell-based. Here is the method: as §7
Assay [21] relates to bacteria, fungal spores, and fungal mycelia. Type of assay: cell-based. The conditions noted are these: SYTOX Green, crude peptides, room temperature in dark for 2 h.
Assay [22] concerns Xanthomonas oryzae pv. oryzae strain Xoo28. The note with it: Xoo Xoo28; Table 7.
Assay [23] relates to Agrobacterium tumefaciens strain Atu C58C1. The note with it: rich medium, 24 h, purified peptides.
Assay [24] deals with Xanthomonas campestris pv. campestris strain Xcc17. Briefly: IC50 of bacterial growth (OD600) in rich liquid medium. Type of assay: cell-based. The note with it: Xcc Xcc17, 24 h, purified peptides. How it is done:
(§8) To measure the antimicrobial activity, single colony grown on an optimal rich agar medium for each bacterium was picked and grew in 3 mL of the same rich liquid medium for 4 to 6 h. The bacterial culture was then diluted in the same medium to give a final concentration of OD600=0.08 and then further diluted […] in the same medium. In each well of a 96-well polystyrene plate, 90 μL of the diluted culture was mixed with 10 μL of the peptide to give a peptide concentration of 0, 2, 10, and 20 μg/mL (final cell concentration is 5×10^5 CFU/mL). OD600 was measured after incubation at an optimal temperature for 24 h. IC50 was determined as the lowest peptide concentration inhibiting 50% of bacterial growth.

Assay [25] has as its system Xanthomonas euvesicatoria strain Xvt28. Described as above. Type of assay: cell-based. The conditions noted are these: Xev Xvt28, 24 h, purified peptides. Here is the method: as §8
The test system of assay [26] is Xanthomonas oryzae pv. oryzae strain Xoo28. The conditions noted are these: Xoo Xoo28; rich medium, 24 h, purified peptides.
In assay [27] the test system is Escherichia coli strain DH5a. The note with it: 24 h.
For assay [28], the system named is Candida albicans SC5314. The conditions noted are these: Candida albicans SC5314; 48 h at 35° C., 0.125 to 64 μg/mL (Table 5).

In brackets after ≈: the same amount, converted by molar mass. Read-outs that look alike come from different tables or passages of the source. Non-standard residues stand in square brackets, D forms with d. Residues, ends and D or L forms follow the SMILES beside them. *: point of attachment. Myristoyl = CCCCCCCCCCCCCC(=O)*

On to `CCCCCCCCCCCCCC(=O)N[C@@H](Cc1c[nH]c2ccccc12)C(=O)N[C@@H](CCCCN)C(=O)N[C@@H](CCCCN)C(=O)N[C@H](C(=O)N[C@@H](CCCCN)C(=O)N[C@@H](CCCCN)C(=O)N[C@H](C(=O)N[C@H](C(=O)N[C@@H](CCCCN)C(=O)N[C@@H](CCCCN)C(=O)N[C@H](C(=O)N[C@@H](CCCCN)C(=O)N[C@@H](CCCCN)C(=O)N[C@H](C(N)=O)[C@@H](C)CC)[C@@H](C)CC)[C@@H](C)CC)[C@@H](C)CC)[C@@H](C)CC` [pepI2M] (Myristoyl-WKKIKKIIKKIKKI-NH2), for which the MBC in assay [1] was found to be 32 µg/mL (≈ 16 µM).

Turning to `CC(=O)N[C@@H](Cc1c[nH]c2ccccc12)C(=O)N[C@H](CCCCN)C(=O)N[C@H](CCCCN)C(=O)N[C@H](CC(C)C)C(=O)N[C@H](CCCCN)C(=O)N[C@H](CCCCN)C(=O)N[C@H](CC(C)C)C(=O)N[C@H](CC(C)C)C(=O)N[C@H](CCCCN)C(=O)N[C@H](CCCCN)C(=O)N[C@H](CC(C)C)C(N)=O` [pepdD3, Ac-Wkklkkllkkl-NH2] (Ac-W[dK][dK][dL][dK][dK][dL][dL][dK][dK][dL]-NH2), the minimal inhibitory concentration (MIC) in assay [2] (Cryptococcus neoformans H99) turned out to be 8 µg/mL (≈ 5.45 µM); in [3] (Cryptococcus neoformans 89-610 (fluconazole-resistant)), 4 µg/mL (≈ 2.73 µM); in assay [4] (Cryptococcus neoformans T1 (fluconazole-resistant)), 4 µg/mL (≈ 2.73 µM); in [5] (Cryptococcus deuterogattii R265) it was 4 µg/mL (≈ 2.73 µM). Moreover, the MFC in [2] (H99) is 8 µg/mL (≈ 5.45 µM); in assay [3] (89-610 (fluconazole-resistant)), 4 µg/mL (≈ 2.73 µM); in assay [4] (T1 (fluconazole-resistant)), 4 µg/mL (≈ 2.73 µM); in assay [5] it was 4 µg/mL (≈ 2.73 µM).

For the molecule Ac-WKKLKKLLKKLKKL-NH2 [pepD2], the MBC in assay [6] came to 14.7 µg/mL; in assay [7] it was 32 µg/mL; in assay [9] (Table 7), 7.0 µg/mL; in assay [9] (Table 13) it was 8.0 µg/mL; in assay [10], 8.8 µg/mL; in [11], 16 µg/mL. For the same molecule, the MBC in assay [12] was 16 µg/mL; in assay [16] it was 2.2 µg/mL; in assay [17], 1.0 µg/mL; in assay [18], 3.5 µg/mL; in assay [19] it was 18.8 µg/mL; in assay [19] (Pcc, Table 13), 6.7. μg/mL. Also, the minimal bactericidal concentration (MBC) in assay [20] was determined as 32.0 µg/mL; in assay [22], 6.0 µg/mL. The MIC is 6.0 µg/mL in assay [6]; 16 µg/mL in [7]; “— (“—” indicates no antimicrobial activity being detected at the highest peptide concentration (32 μg/mL) tested in this study.)” in assay [8]; 4.3 µg/mL in assay [9] (Table 7); 8.0 µg/mL in [9] (Table 13); 4.8 µg/mL in [10]. For the same molecule, the minimum inhibitory concentration (MIC) in assay [11] was 16 µg/mL; in assay [12], 16 µg/mL; in [13] it was “— (“—” indicates no antimicrobial activity being detected at the highest peptide concentration (32 μg/mL) tested in this study.)”; in [14] it was “— (“—” indicates no antimicrobial activity being detected at the highest peptide concentration (32 μg/mL) tested in this study.)”; in [15] it was “— (“—” indicates no antimicrobial activity being detected at the highest peptide concentration (32 μg/mL) tested in this study.)”; in [16], 1.6 µg/mL. Also, the MIC in assay [17] was 1.0 µg/mL; in assay [18] it was 3.0 µg/mL; in assay [22] it was 5.0 µg/mL. For the same molecule, the MBC/MFC entry is “— (“—” indicates no antimicrobial activity being detected at the highest peptide concentration (32 μg/mL) tested in this study.)” in assay [8]; “— (“—” indicates no antimicrobial activity being detected at the highest peptide concentration (32 μg/mL) tested in this study.)” in assay [13]; “— (“—” indicates no antimicrobial activity being detected at the highest peptide concentration (32 μg/mL) tested in this study.)” in assay [14]; “— (“—” indicates no antimicrobial activity being detected at the highest peptide concentration (32 μg/mL) tested in this study.)” in [15]; 8.0 µg/mL in assay [19]; 21.3 µg/mL in assay [20]. Further, the “membranolytic effect on the cell walls of bacteria, fungal spores, and fungal mycelia” value in assay [21] is listed as “significant membranolytic effect”.

Take Ac-WKLKLKLKLKLKLKLKLK-NH2 [pepE]: the IC50 in assay [23] stood at 20.0 µg/mL; in [24], 4.0 µg/mL; in assay [25], 2.0 µg/mL; in assay [26] it was 7.3 µg/mL; in assay [27] (DH5a), 10.0 µg/mL. In addition, the MIC result in assay [28] is “— (“—” indicates no antimicrobial activity being detected at the highest peptide concentration (64 μg/mL) tested.)”.

Turning to Ac-WKLLKKLLKKLKKLLKKL-NH2 [pepC], the IC50 in assay [23] came out at 12.5 µg/mL; in assay [24], 10.0 µg/mL; in assay [25] it was 8.0 µg/mL; in assay [26], 12.5 µg/mL; in assay [27] (Eco DH5α, rich medium, purified peptides), 10.0 µg/mL. Besides, the MIC in assay [28] was 32.0 µg/mL.
